# Target: T1, SARM1 (50-724) (Homo sapiens, UniProt Q6SZW1)
# T1 construct: Purified SARM1 (50-724) with a final concentration of 2 nM was pre-incubated with a test compound
# T1 sequence (Q6SZW1 50-724): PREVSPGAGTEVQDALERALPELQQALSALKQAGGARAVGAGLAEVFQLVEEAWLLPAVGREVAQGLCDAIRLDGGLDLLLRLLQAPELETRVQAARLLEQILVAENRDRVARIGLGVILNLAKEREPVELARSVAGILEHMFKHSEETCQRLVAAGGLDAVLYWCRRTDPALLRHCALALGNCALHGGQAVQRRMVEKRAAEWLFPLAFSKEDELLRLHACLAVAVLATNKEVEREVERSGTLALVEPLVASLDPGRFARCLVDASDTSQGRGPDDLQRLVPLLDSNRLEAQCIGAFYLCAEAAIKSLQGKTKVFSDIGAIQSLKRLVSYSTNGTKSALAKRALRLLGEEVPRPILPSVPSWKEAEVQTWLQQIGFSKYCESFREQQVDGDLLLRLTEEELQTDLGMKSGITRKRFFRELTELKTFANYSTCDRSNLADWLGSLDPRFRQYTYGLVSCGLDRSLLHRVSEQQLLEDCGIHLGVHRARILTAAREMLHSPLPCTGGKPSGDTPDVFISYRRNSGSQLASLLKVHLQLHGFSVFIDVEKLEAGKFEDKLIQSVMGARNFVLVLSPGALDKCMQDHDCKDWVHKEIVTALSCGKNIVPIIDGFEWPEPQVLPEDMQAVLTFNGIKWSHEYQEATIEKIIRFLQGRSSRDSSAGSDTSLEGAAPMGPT
# Assay: SARM1 (50-724) enzymatic assay (LC-MS/MS)
# Assay type: biochemical
# Settings: Purified SARM1 (50-724) 2 nM, NMN as activator, NAD+ as substrate, 1 h at room temperature, read-out: IC50 (SARM1 inhibitory activity)
# Description: An enzymatic assay was performed in a 384-well plate using Dulbecco's phosphate-buffered saline (PBS) as the reaction buffer. Purified SARM1 (50-724) with a final concentration of 2 nM was pre-incubated with a test compound at […] final assay concentration for 15 min at room temperature. The reaction was initiated by adding a mixture of […] nicotinamide mononucleotide (NMN) as activator and […] NAD^+ as substrate. After 1 h of incubation at room temperature, the reaction was terminated with 10 times volume of 70% acetonitrile, and then centrifuged at 3800 rpm for 10 min. The samples were analyzed using LC-MS/MS after diluted to a proper concentration by 10 mM ammonium acetate (pH 9.75).
# In Table 2, activity is provided as follows: A: IC50≤100 nM; B: 100 nM<IC50≤500 nM; C: 500 nM<IC50≤1000 nM; D: IC50>1000 nM.
row,Structure (SMILES),IC50 [nM]
1,"CS(=O)(=O)Cc1nnc(-c2nc3cc(C(F)(F)F)cc(F)c3[nH]2)n1-c1cccc(Cl)c1Cl [Compound 185, 2-(4-(2,3-dichlorophenyl)-5-((methylsulfonyl)methyl)-4H-1,2,4-triazol-3-yl)-4-fluoro-6-(trifluoromethyl)-1H-benzo[d]imidazole]",≤ 100
2,"FC(F)(F)Oc1ccc2[nH]c(-c3nncn3-c3cccc(Cl)c3Cl)nc2c1 [Example 132, 2-(4-(2,3-dichlorophenyl)-4H-1,2,4-triazol-3-yl)-5-(trifluoromethoxy)-1H-benzo[d]imidazole]",≤ 100
3,"Fc1cc(C(F)(F)F)cc2nc(-c3nncn3-c3cc(Cl)ncc3OC(F)(F)F)[nH]c12 [Compound 218, 2-(4-(2-chloro-5-(trifluoromethoxy)pyridin-4-yl)-4H-1,2,4-triazol-3-yl)-7-fluoro-5-(trifluoromethyl)-1H-benzo[d]imidazole]",≤ 100
4,"CS(=O)(=O)Cc1nnc(-c2nc3cc(C(F)(F)F)cc(F)c3[nH]2)n1-c1cccc(F)c1Cl [Compound 182, 2-(4-(2-Chloro-3-fluorophenyl)-5-((methylsulfonyl)methyl)-4H-1,2,4-triazol-3-yl)-7-fluoro-5-(trifluoromethyl)-1H-benzo[d]imidazole]",≤ 100
5,"CCN(C)C(=O)c1ccc2[nH]c(-c3nncn3-c3ccc(F)c(F)c3Cl)nc2c1 [Compound 172, 2-(4-(2-chloro-3,4-difluorophenyl)-4H-1,2,4-triazol-3-yl)-N-ethyl-N-methyl-1H-benzo[d]imidazole-5-carboxamide]",> 1000
6,FC(F)(F)c1ccc2[nH]c(-c3cnncc3-c3cccc(Cl)c3Cl)nc2c1 [Example 44],100 to 500
7,"FC(F)(F)c1ccc2[nH]c(-c3cncn3-c3cccc(Cl)c3Cl)nc2c1 [Example 45, 2-(1-(2,3-dichlorophenyl)-1H-imidazol-5-yl)-5-(trifluoromethyl)-1H-benzo[d]imidazole]",≤ 100
8,"O=c1ccc(C(F)(F)F)c(-n2cnnc2-c2nc3cc(C(F)(F)F)ccc3[nH]2)[nH]1 [Compound 280, 5-(trifluoromethyl)-6-(3-(5-(trifluoromethyl)-1H-benzo[d]imidazol-2-yl)-4H-1,2,4-triazol-4-yl)pyridin-2(1H)-one]",≤ 100
9,"Fc1ccc(OC(F)(F)F)c(-n2cnnc2-c2nc3cc(C(F)(F)F)cc(F)c3[nH]2)c1 [Compound 213, 7-fluoro-2-(4-(5-fluoro-2-(trifluoromethoxy)phenyl)-4H-1,2,4-triazol-3-yl)-5-(trifluoromethyl)-1H-benzo[d]imidazole]",≤ 100
10,"Fc1cc(C2CC2)cc2nc(-c3nnccc3-c3cnccc3C(F)(F)F)[nH]c12 [Compound 420, 6-cyclopropyl-4-fluoro-2-(4-(4-(trifluoromethyl)pyridin-3-yl)pyridazin-3-yl)-1H-benzo[d]imidazole]",≤ 100
11,"Cc1ccc2[nH]c(-c3nccn3C3CCCC3)nc2c1 [Compound 2, 2-(1-cyclopentylimidazol-2-yl)-5-methyl-1H-benzimidazole]",500 to 1000
12,Cc1nsc(Cl)c1-n1cnnc1-c1nc2cc(C(F)(F)F)ccc2[nH]1 [Example 118],≤ 100
13,"CSc1c(Br)ccc2[nH]c(-c3nncn3-c3cccc(Cl)c3Cl)nc12 [Example 72, 5-bromo-2-(4-(2,3-dichlorophenyl)-4H-1,2,4-triazol-3-yl)-4-(methylthio)-1H-benzo[d]imidazole]",100 to 500
14,O=c1[nH]ccc(-c2cccc(Cl)c2Cl)c1-c1nc2cc(C(F)(F)F)ccc2[nH]1 [Example 35],100 to 500
15,"FC(F)(F)Oc1cnc(C2CCO2)cc1-n1cnnc1-c1nc2cc(C(F)(F)F)ccc2[nH]1 (centres unmarked) [Compound 294, 2-(4-(2-(oxetan-2-yl)-5-(trifluoromethoxy)pyridin-4-yl)-4H-1,2,4-triazol-3-yl)-5-(trifluoromethyl)-1H-benzo[d]imidazole]",≤ 100
16,Cn1ncc(-c2cccc(Cl)c2Cl)c1-c1nc2cc(C(F)(F)F)ccc2[nH]1 [Example 39],> 1000
17,"Fc1cc(C(F)(F)F)cc2nc(-c3nnc(CC(F)F)n3-c3cnccc3C(F)(F)F)[nH]c12 [Compound 317, 2-(5-(2,2-difluoroethyl)-4-(4-(trifluoromethyl)pyridin-3-yl)-4H-1,2,4-triazol-3-yl)-7-fluoro-5-(trifluoromethyl)-1H-benzo[d]imidazole]",≤ 100
18,"O=S1(c2cc(F)c3[nH]c(-c4nncn4-c4cnccc4C(F)(F)F)nc3c2)=NCCC1 (centres unmarked) [Compound 424, 1-[7-fluoro-2-[4-[4-(trifluoromethyl)-3-pyridyl]-1,2,4-triazol-3-yl]-1H-benzimidazol-5-yl]-4,5-dihydro-3H-isothiazole 1-oxide]",> 1000
19,"CN(CCC(N)=O)c1cc(F)c2[nH]c(-c3nncn3-c3cnccc3C(F)(F)F)nc2c1 [Compound 450, 3-((4-fluoro-2-(4-(4-(trifluoromethyl)pyridin-3-yl)-4H-1,2,4-triazol-3-yl)-1H-benzo[d]imidazol-6-yl)(methyl)amino)propanamide]",≤ 100
20,"NC1CC1c1ccc2[nH]c(-c3nncn3-c3cnccc3C(F)(F)F)nc2c1F (centres unmarked) [Compound 324, 2-(4-fluoro-2-(4-(4-(trifluoromethyl)pyridin-3-yl)-4H-1,2,4-triazol-3-yl)-1H-benzo[d]imidazol-5-yl)cyclopropan-1-amine]",100 to 500

# The next lines start with the values.
row,IC50 [nM],Structure (SMILES)
1,≤ 100,"Fc1cc([C@@H]2[C@@H]3COC[C@@H]32)cc2nc(-c3nncn3-c3cnccc3C(F)(F)F)[nH]c12 (single isomer, unassigned) [Compound 349, 7-fluoro-5-(3-oxabicyclo[3.1.0]hexan-6-yl)-2-[4-[4-(trifluoromethyl)-3-pyridyl]-1,2,4-triazol-3-yl]-1H-benzimidazole]"
2,> 1000,"FC(F)(F)c1ccncc1-n1cnnc1-c1nc2c(-c3cccnc3)c(Cl)ccc2[nH]1 [Compound 334, 6-chloro-7-(pyridin-3-yl)-2-(4-(4-(trifluoromethyl)pyridin-3-yl)-4H-1,2,4-triazol-3-yl)-1H-benzo[d]imidazole]"
3,≤ 100,O=C(O)C1(c2ccc3[nH]c(-c4nncn4-c4cccc(Cl)c4Cl)nc3c2)CCC1 [Example 113]
4,≤ 100,"FC(F)(F)O[C@@H]1CCOC[C@H]1n1cnnc1-c1nc2cc(C(F)(F)F)ccc2[nH]1 (racemic) [Compound 239, 2-(4-((3R,4R)-4-(trifluoromethoxy)tetrahydro-2H-pyran-3-yl)-4H-1,2,4-triazol-3-yl)-5-(trifluoromethyl)-1H-benzo[d]imidazole]"
5,≤ 100,"Clc1cccc(-n2cnnc2-c2nc3cc(-c4cscn4)ccc3[nH]2)c1Cl [Example 100, 4-(2-(4-(2,3-dichlorophenyl)-4H-1,2,4-triazol-3-yl)-1H-benzo[d]imidazol-5-yl)thiazole]"
6,≤ 100,"COC(C)c1ccc2[nH]c(-c3nncn3-c3ccc(F)c(F)c3Cl)nc2c1 (centres unmarked) [Compound 155, 2-(4-(2-chloro-3,4-difluorophenyl)-4H-1,2,4-triazol-3-yl)-5-(1-methoxyethyl)-1H-benzo[d]imidazole]"
7,≤ 100,"NC(=O)c1cc(-c2nc3cc(C(F)(F)F)ccc3[nH]2)n(-c2cccc(F)c2Cl)n1 [Compound 397, 1-(2-chloro-3-fluorophenyl)-5-(5-(trifluoromethyl)-1H-benzo[d]imidazol-2-yl)-1H-pyrazole-3-carboxamide]"
8,> 1000,"O=C1CN(c2nc3cc(C(F)(F)F)ccc3[nH]2)C(c2ccccc2)CN1 (centres unmarked) [Compound 368, 5-phenyl-4-(5-(trifluoromethyl)-1H-benzo[d]imidazol-2-yl)piperazin-2-one]"
9,≤ 100,"FC(F)(F)Oc1cnc(CC2COC2)cc1-n1cnnc1-c1nc2cc(C(F)(F)F)ccc2[nH]1 [Compound 262, 2-(4-(2-(oxetan-3-ylmethyl)-5-(trifluoromethoxy)pyridin-4-yl)-4H-1,2,4-triazol-3-yl)-5-(trifluoromethyl)-1H-benzo[d]imidazole]"
10,> 1000,Cn1cc(-c2nc(Cl)c(Cl)s2)c(-c2nc3cc(C(F)(F)F)ccc3[nH]2)cc1=O [Compound 97]
11,500 to 1000,FC(F)(F)c1ccc2[nH]c(-c3c[nH]nc3-c3cccc(Cl)c3Cl)nc2c1 [Example 61]
12,≤ 100,"Fc1cccc(-n2c(CN3CC4(CCO4)C3)nnc2-c2nc3cc(C(F)(F)F)ccc3[nH]2)c1Cl [Compound 398, 6-((4-(2-chloro-3-fluorophenyl)-5-(6-(trifluoromethyl)-1H-benzo[d]imidazol-2-yl)-4H-1,2,4-triazol-3-yl)methyl)-1-oxa-6-azaspiro[3.3]heptane]"
